How the values were obtained:
Details in all cases: binder
[1] = biological target: T1, DMPK1 (Homo sapiens, UniProt Q09013)
T1 sequence (Q09013 1-629): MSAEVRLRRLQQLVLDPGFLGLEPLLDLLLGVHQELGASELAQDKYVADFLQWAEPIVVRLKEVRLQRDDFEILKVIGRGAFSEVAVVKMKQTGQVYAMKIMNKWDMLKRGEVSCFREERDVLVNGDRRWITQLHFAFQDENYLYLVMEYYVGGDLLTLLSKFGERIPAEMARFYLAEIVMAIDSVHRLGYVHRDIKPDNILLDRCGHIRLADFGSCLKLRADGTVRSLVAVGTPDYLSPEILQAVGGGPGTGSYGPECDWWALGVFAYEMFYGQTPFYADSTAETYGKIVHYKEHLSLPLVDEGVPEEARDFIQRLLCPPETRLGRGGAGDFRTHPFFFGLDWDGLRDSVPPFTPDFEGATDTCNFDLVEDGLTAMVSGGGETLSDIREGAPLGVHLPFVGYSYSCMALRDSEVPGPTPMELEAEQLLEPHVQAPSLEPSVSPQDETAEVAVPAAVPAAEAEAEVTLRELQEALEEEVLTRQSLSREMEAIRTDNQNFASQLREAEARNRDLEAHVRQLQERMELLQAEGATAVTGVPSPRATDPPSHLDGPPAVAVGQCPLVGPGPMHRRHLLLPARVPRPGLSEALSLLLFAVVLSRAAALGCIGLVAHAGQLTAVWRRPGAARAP

[2] = biological target: T2, DRAK1 (Homo sapiens, UniProt Q9UEE5)
T2 sequence (Q9UEE5 1-414): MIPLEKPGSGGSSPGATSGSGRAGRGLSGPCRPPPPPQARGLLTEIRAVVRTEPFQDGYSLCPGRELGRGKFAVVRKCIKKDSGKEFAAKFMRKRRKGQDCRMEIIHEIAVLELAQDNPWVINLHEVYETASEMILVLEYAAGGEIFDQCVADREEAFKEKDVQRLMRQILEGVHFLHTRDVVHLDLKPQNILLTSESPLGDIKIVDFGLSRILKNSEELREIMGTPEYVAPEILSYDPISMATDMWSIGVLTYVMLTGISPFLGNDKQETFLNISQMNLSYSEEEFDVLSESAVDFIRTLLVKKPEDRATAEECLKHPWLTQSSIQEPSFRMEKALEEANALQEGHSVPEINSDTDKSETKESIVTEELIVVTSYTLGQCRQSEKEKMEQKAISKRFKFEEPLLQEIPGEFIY

[3] = biological target: CK2a1 (Homo sapiens, UniProt P68400)
Sequence of CK2a1 (P68400 whole entry): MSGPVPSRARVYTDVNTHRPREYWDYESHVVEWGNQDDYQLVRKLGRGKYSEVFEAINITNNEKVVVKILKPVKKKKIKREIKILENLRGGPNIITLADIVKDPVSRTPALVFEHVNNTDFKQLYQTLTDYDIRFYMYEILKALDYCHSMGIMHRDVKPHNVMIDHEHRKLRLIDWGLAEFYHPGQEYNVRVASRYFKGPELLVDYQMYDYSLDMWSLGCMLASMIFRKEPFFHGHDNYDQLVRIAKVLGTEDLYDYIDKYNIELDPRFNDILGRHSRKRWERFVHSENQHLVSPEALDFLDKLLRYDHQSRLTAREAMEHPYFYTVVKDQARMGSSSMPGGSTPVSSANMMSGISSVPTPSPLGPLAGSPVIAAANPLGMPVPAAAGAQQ

[4] = biological target: JNK2 (Homo sapiens, UniProt P45984)
Sequence of JNK2 (P45984 whole entry): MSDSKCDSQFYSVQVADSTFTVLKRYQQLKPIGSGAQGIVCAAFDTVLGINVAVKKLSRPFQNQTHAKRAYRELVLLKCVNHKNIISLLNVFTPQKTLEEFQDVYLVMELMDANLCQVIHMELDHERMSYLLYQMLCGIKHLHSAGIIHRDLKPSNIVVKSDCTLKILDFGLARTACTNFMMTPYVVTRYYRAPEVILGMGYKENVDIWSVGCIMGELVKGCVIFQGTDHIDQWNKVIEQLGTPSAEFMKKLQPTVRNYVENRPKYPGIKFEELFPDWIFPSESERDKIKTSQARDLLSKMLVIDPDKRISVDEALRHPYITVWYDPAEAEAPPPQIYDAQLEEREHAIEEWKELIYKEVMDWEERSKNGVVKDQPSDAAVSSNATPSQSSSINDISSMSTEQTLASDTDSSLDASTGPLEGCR

[5] = biological target: T3, EphB3 (Homo sapiens, UniProt P54753)
T3 sequence (P54753 1-998): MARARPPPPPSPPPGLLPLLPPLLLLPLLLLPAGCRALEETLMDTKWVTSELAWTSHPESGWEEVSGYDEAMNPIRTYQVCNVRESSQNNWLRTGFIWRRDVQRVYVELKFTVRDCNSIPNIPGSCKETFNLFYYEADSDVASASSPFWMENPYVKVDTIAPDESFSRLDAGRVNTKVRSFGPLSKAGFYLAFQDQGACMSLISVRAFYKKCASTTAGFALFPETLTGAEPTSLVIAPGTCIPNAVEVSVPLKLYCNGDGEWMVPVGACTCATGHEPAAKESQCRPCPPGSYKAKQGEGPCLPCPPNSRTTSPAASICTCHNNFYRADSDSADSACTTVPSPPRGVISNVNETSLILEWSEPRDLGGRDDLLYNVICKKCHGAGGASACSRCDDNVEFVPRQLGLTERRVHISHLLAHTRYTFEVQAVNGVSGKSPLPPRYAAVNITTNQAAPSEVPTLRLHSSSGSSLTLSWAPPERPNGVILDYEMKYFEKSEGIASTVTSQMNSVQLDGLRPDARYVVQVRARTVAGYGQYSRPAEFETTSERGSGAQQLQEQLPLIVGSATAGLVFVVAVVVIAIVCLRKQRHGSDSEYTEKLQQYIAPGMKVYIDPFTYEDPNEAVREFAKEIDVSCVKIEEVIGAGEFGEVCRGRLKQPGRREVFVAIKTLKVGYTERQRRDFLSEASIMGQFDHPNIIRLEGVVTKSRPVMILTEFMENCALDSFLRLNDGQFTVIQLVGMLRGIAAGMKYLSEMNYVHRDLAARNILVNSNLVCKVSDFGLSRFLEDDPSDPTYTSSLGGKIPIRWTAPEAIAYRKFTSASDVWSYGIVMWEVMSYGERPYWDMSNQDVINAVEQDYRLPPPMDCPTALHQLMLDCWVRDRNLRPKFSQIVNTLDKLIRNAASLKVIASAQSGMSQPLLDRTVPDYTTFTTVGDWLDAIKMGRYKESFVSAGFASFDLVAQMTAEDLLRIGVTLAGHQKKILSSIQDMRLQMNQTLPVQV

[6] = biological target: CaMKK2 (Homo sapiens, UniProt Q96RR4)
Sequence of CaMKK2 (Q96RR4 whole entry): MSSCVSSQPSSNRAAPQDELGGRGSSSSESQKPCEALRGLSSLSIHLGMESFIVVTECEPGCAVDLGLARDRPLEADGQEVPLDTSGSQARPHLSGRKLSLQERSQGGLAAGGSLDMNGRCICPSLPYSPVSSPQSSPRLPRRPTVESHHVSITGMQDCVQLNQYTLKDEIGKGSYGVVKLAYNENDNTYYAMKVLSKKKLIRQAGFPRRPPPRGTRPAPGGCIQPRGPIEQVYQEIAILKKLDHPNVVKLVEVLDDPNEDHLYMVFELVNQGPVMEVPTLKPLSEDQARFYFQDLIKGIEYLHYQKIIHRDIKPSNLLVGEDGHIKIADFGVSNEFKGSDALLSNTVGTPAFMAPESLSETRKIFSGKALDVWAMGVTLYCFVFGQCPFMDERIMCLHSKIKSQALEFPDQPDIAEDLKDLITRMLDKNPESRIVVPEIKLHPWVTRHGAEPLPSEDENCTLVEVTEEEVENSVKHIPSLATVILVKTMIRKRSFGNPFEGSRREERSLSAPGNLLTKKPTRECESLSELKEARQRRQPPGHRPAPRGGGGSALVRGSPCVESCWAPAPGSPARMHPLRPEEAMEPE

[7] = biological target: FGFR2 (Homo sapiens, UniProt P21802)
Sequence of FGFR2 (P21802 whole entry): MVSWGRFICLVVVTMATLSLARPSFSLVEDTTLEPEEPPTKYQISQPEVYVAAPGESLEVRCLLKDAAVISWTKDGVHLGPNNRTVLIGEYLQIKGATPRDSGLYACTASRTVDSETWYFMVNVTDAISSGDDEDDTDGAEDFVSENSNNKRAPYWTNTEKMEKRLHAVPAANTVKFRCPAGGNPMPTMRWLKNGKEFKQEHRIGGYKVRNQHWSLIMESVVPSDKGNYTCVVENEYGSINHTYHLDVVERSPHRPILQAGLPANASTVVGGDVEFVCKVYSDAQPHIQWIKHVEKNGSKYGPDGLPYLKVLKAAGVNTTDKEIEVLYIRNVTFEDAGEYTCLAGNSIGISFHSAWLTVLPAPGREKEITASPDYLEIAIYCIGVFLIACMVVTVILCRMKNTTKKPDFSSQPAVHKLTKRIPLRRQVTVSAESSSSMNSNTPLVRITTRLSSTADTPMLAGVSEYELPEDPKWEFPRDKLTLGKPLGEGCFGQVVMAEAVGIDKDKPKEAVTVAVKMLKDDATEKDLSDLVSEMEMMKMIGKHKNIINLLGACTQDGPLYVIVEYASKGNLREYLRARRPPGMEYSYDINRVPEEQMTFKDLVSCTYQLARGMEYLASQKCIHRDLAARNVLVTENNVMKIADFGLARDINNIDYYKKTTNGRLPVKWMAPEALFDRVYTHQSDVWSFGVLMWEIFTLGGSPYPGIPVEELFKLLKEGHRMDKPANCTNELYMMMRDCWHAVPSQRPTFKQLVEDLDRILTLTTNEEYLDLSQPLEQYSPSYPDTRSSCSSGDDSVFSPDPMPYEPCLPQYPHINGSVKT

[8] = biological target: T4, MAP2K6 (Homo sapiens, UniProt P52564)
T4 sequence (P52564 1-334): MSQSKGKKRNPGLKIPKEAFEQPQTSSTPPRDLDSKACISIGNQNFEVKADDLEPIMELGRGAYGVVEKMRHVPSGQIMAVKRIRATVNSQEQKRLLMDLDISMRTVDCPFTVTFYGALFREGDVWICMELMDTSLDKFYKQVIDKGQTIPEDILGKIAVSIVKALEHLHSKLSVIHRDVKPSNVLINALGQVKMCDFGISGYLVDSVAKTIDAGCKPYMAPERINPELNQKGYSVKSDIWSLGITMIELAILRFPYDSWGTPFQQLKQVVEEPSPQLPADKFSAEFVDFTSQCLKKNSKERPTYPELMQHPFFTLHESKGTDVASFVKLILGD

[9] = biological target: CDK2 (Homo sapiens, UniProt P24941)

Cc1cccc(-c2ccc(-c3cc4cnc(NCCCc5ccc(N)cc5)nc4n(CCCCN)c3=O)c(Cl)c2)n1 [compound 25, 8-(4-Aminobutyl)-2-((3-(4-aminophenyl)propyl)amino)-6-(2-chloro-4-(6-methylpyridin-2-yl)phenyl)pyrido[2,3-d]pyrimidin-7(8H)-one]
ΔTm 25 [1]: -2.7 °C
ΔTm 25 [2]: 0.9 °C
ΔTm 25 [3]: -0.4 °C
ΔTm 25 [4]: 2.6 °C
ΔTm 25 [5]: 2.8 °C
ΔTm 25 [6]: 3.3 °C
ΔTm 25 [7]: 1.7 °C
ΔTm 25 [8]: 8.3 °C
ΔTm 25 [9]: 4.9 °C

Cc1cccc(-c2ccc(-c3cc4cnc(NC(CO)CO)nc4n(CCCCN)c3=O)c(Cl)c2)n1 [compound 24, 8-(4-Aminobutyl)-6-(2-chloro-4-(6-methylpyridin-2-yl)phenyl)-2-((1,3-dihydroxypropan-2-yl)amino)pyrido[2,3-d]pyrimidin-7(8H)-one]
ΔTm MR24 (24) [1]: -1.3 °C
ΔTm MR24 (24) [2]: 0.0 °C
ΔTm MR24 (24) [3]: 0.0 °C
ΔTm MR24 (24) [4]: 0.4 °C
ΔTm MR24 (24) [5]: 0.2 °C
ΔTm MR24 (24) [6]: 0.2 °C
ΔTm MR24 (24) [7]: 0.8 °C
ΔTm MR24 (24) [8]: 2.8 °C
ΔTm MR24 (24) [9]: 1.2 °C

CNc1ncc2cc(-c3ccc(-c4cccc(C)n4)cc3Cl)c(=O)n(C[C@H]3CC[C@H](N)CC3)c2n1 [compound 23, 23]
ΔTm 23 [1]: -2.8 °C
ΔTm 23 [2]: -1.0 °C
ΔTm 23 [3]: -0.4 °C
ΔTm 23 [4]: 1.3 °C
ΔTm 23 [5]: 3.6 °C
ΔTm 23 [6]: 4.9 °C
ΔTm 23 [7]: 2.9 °C
ΔTm 23 [8]: 8.3 °C
ΔTm 23 [9]: 3.5 °C

Cc1cccc(-c2ccc(-c3cc4cnc(NCCCN5CCOCC5)nc4n(CCCCN)c3=O)c(Cl)c2)n1 [compound 26, MR26]
ΔTm MR26 (26) [1]: -1.3 °C
ΔTm MR26 (26) [2]: 0.2 °C
ΔTm MR26 (26) [3]: 0.6 °C
ΔTm MR26 (26) [4]: 0.0 °C
ΔTm MR26 (26) [5]: 2.4 °C
ΔTm MR26 (26) [6]: 1.5 °C
ΔTm MR26 (26) [7]: 1.4 °C
ΔTm MR26 (26) [8]: 3.1 °C
ΔTm MR26 (26) [9]: 0.9 °C

CNc1ncc2cc(-c3ccc(-c4cccc(C)n4)cc3Cl)c(=O)n(CCC3CCNCC3)c2n1 [compound 22, 6-(2-Chloro-4-(6-methylpyridin-2-yl)phenyl)-2-(methylamino)-8-(2-(piperidin-4-yl)ethyl)pyrido[2,3-d]pyrimidin-7(8H)-one]
ΔTm 22 [1]: -1.7 °C
ΔTm 22 [2]: -1.3 °C
ΔTm 22 [3]: -0.6 °C
ΔTm 22 [4]: 0.3 °C
ΔTm 22 [5]: 2.6 °C
ΔTm 22 [6]: 2.3 °C
ΔTm 22 [7]: 3.9 °C
ΔTm 22 [8]: 5.6 °C
ΔTm 22 [9]: 2.5 °C

CNc1ncc2cc(-c3ccc(-c4cccc(C)n4)cc3Cl)c(=O)n(CCCCN)c2n1 [compound 20, MRLW5]
ΔTm MRLW5 (20) [1]: 0.8 °C
ΔTm MRLW5 (20) [2]: -0.5 °C
ΔTm MRLW5 (20) [3]: -0.2 °C
ΔTm MRLW5 (20) [4]: 0.3 °C
ΔTm MRLW5 (20) [5]: 2.5 °C
ΔTm MRLW5 (20) [6]: 1.4 °C
ΔTm MRLW5 (20) [7]: 1.9 °C
ΔTm MRLW5 (20) [8]: 5.7 °C
ΔTm MRLW5 (20) [9]: 1.3 °C
